Measurements: patent publication US20180154170A1, “METHODS AND COMPOSITIONS FOR TREATING MENTAL DISORDERS AND CONDITIONS” (priority 2015, published 2018)

Experiments:
[1] = test system: magnocellular and parvocellular BLA neurons; conditions: bath application 10 μM; cells clamped at 0 mV; 10 Hz train; n=6 magnocellular, n=6 parvocellular
Experimental: Male mice (mean-PND 45 days) were anesthetized by isoflurane and their brains were dissected. By using a vibratome (VT1000S, Leica) 300 μm-thick parasagittal slices containing the basolateral amygdala were prepared in oxygenated cutting solution at ˜4° C. Slices were then incubated at −23° C. in oxygenated artificial cerebrospinal fluid (ACSF). The cutting solution contained 3 mM KCl, 0.5 mM CaCl2, 10 mM MgCl2, 25 mMNaHCO3, 1.2 mM NaHPO4, 10 mM d-glucose, 230 mM sucrose, saturated with 95% O/5% CO2 (pH 7.3, osmolarity 340 mOsm). […]
Whole-cell recordings in current-clamp or voltage-clamp mode were performed by using an infrared differential interference contrast microscope (BX51, Olympus) with a water immersion 40× objective (N.A. 0.8), and equipped with four automatic manipulators (Luigs & Neumann) and a CCD camera (Orca R2, Hamamatsu). […] Access resistance was monitored throughout the duration of the experiment and data acquisition was suspended whenever the resting membrane potential was depolarized above −50 mV or the access resistance was beyond 20 MΩ. […]
Optogenetic stimulation was achieved through a 460-nm LED light source (XLED1, Lumen Dynamics) driven by TTL input with a delay onset of 25 μs (subtracted off-line). […] In voltage-clamp cells were held at 0 mV for IPSC measurements, whereas, in current mode, EPSP and action potentials were measured at resting potentials. […]

[2] = test system: AMPA and NMDA receptors in the NAcc; test: Tail suspension test with optical reactivation of dentate gyrus positive memory cells, glutamate antagonists infused into the NAcc; type: in vivo; conditions: stressed mice; bilateral infusion into NAcc (NBQX 22.3 mM, AP5 38.04 mM, 0.2 μl per hemisphere), 20 min before behavior; compared with saline
Experimental: Glutamate antagonists were bilaterally infused into the NAcc as follows: 0.2 μl per hemisphere of NBQX at a concentration of 22.3 mM to antagonize AMPA (α-amino-3-hydroxy-5-methyl-4-isoxazole propionic acid) receptors and 0.2 μl per hemisphere of AP5 at a concentration of 38.04 mM to antagonize NMDA (N-methyl-D-aspartate) receptors. Dopamine receptor antagonists were bilaterally infused into the NAcc as follows: 0.2 μl SCH23390 at a concentration of 6.16 mM to antagonize D1-like receptors and 0.2 μl raclopride at a concentration of 2.89 mM to antagonize D2-like receptors. A 26-gauge stainless steel double internal cannula (PlasticsOne) was used to bilaterally infuse each drug; the internal cannula was connected with a microsyringe pump by a PE20 tube to control the injection rate at 100 nl min^−1. The injection cannula was left connected for 5 min before removal to allow for diffusion. Finally, all behavior was performed 20 min following drug infusion.
Fibre optic implants on experimental mice were plugged into a patch cord before the tail suspension test. Each subject was hung by its tail from a bar 40 cm from the ground with a single piece of autoclave tape. […] An experimenter blind to each mouse condition and light treatment scored all the tail suspension videos by measuring the total time in seconds that each mouse spent struggling throughout the protocol.

[3] = reported in reference 28; cited from earlier work

SMILES | behavioral effects of optically reactivating dentate gyrus cells labelled by a positive experience in the TST [2] | also measured
COc1ccc(-c2ccc(=N)n(CCCC(=O)O)n2)cc1 [gabazine] | – | inhibitory postsynaptic currents (IPSCs) evoked by optogenetic stimulation of Ppp1r1b-ChR2+ and Rspo2-ChR2+ fibers [1]: blocked
NS(=O)(=O)c1cccc2c1c([N+](=O)[O-])cc1nc(O)c(O)nc12 [NBQX] | blocked | –
NC(CCCP(=O)(O)O)C(=O)O (stereo not shown) [AP5] | blocked | –
CNC1(c2ccccc2Cl)CCCCC1=O (stereo not shown) [ketamine] | – | antidepressant effect in patients [3]: rapid effects in a subset of patients
